Experimental data published in patent publication US20160037775A1, “ACTIVE INGREDIENT COMBINATIONS HAVING INSECTICIDAL AND ACARICIDAL PROPERTIES” (priority 2010, published 2016).
Like-named read-outs stand apart in the source and are kept apart here.

Columns and labels:
Format in all cases: in vivo
Phaedon cochleariae = experiment: whole plant or invertebrate; conditions: for pest or weed control at 0.8 g/ha / pest or weed control at 4 g/ha / pest or weed control at 0.16 g/ha: Phaedon cochleariae, 144 h, read-out: Kill rate in % after 6 d
Source text: (§1) The expected action for a given combination of two active ingredients can be calculated according to S. R. Colby, Weeds 15 (1967), 20-22 as follows:
(§2) • X is the kill rate, expressed in % of the untreated control, in the case of use of active ingredient A in an application rate of m g/ha or in a concentration of m ppm, • Y is the kill rate, expressed in % of the untreated control, in the case of use of active ingredient B in an application rate of n g/ha or in a concentration of n ppm, and • E is the kill rate, expressed in % of the untreated control, in the case of use of active ingredients A and B in application rates of m and n g/ha or in a concentration of m and n ppm, then
(§3) If the actual kill rate is greater than that calculated, the kill rate of the combination is superadditive, which means that a synergistic effect is present. In this case, the kill rate actually observed must be greater than the value calculated from the above formula for the expected kill rate (E).
(§4) • 78 parts by weight of acetone • 1.5 parts by weight of dimethylformamide Emulsifier: 0.5 part by weight of alkylaryl polyglycol ether
(§5) To produce an appropriate active ingredient formulation, 1 part by weight of active ingredient is mixed with the stated amounts of solvent and emulsifier, and the concentrate is diluted with emulsifier-containing water to the desired concentration.
Cabbage leaves (Brassica oleracea) are treated by spraying with the active ingredient formulation of the desired concentration and populated with larvae of the mustard beetle (Phaedon cochleariae) while the leaves are still moist.
After the desired period of time, the kill rate in % is determined. 100% means that all beetle larvae have been killed; 0% means that none of the beetle larvae have been killed. The kill rates determined are entered into Colby's formula.

Myzus persicae = experiment: whole plant or invertebrate
Source text: as §3, §4, §5
After the desired time, the kill in % is determined. 100% means that all aphids have been killed; 0% means that no aphids have been killed. The kill rates determined are entered into Colby's formula.

Spodoptera frugiperda = experiment: whole plant or invertebrate
Source text: as §3, §4, §5
After the desired time, the kill in % is determined. 100% means that all caterpillars have been killed; 0% means that none of the caterpillars have been killed. The kill rates determined are entered into Colby's formula.

Tetranychus urticae = experiment: Tetranychus test (OP-resistant/spray treatment)
Source text: as §1, §2, §3, §4, §5
Discs of bean leaves (Phaseolus vulgaris) infested by all stages of the two-spotted spider mite (Tetranychus urticae) are sprayed with an active ingredient formulation of the desired concentration.
After the desired period of time, the effect in % is determined. 100% means that all of the spider mites have been killed; 0% means that none of the spider mites have been killed.

[1] = Spodoptera frugiperda, 144 h, 4 g/ha, after 6 d, read-out: Kill rate in % after 6 d
[2] = Myzus persicae, 24 h, 4 g/ha, after 1 d, read-out: Kill rate in % after 1 d
[3] = Myzus persicae, 24 h, read-out: Kill rate in % after 1 d
[4] = Myzus persicae, 144 h, 0.16 g/ha, after 6 d, read-out: Kill rate in % after 6 d

## CNC(=O)O/N=C/C(C)(C)SC [aldicarb]
Phaedon cochleariae; 0.8 g/ha
  Kill rate in % after 2 d: 0%
Myzus persicae; Myzus persicae, 144 h, 0.8 g/ha, after 6 d, read-out: Kill rate in % after 6 d
  pest or weed control at 0.8 g/ha: 0%

## O=C(NC(=O)c1c(F)cccc1F)Nc1ccc(OC(F)(F)C(F)OC(F)(F)F)c(Cl)c1 (stereo not drawn) [novaluron]
Spodoptera frugiperda; Spodoptera frugiperda, 144 h, 0.8 g/ha, after 6 d, read-out: Kill rate in % after 6 d
  pest or weed control at 0.8 g/ha: 67%
Phaedon cochleariae; 0.8 g/ha, after 6 d
  pest or weed control at 0.8 g/ha: 0%

## FC(F)(F)c1ccc(OCCCOc2c(Cl)cc(OCC=C(Cl)Cl)cc2Cl)nc1 [pyridalyl]
Spodoptera frugiperda; [1]
  pest or weed control at 4 g/ha: 0%
Phaedon cochleariae; 4 g/ha, after 6 d
  pest or weed control at 4 g/ha: 0%
Myzus persicae; [2]
  pest or weed control at 4 g/ha: 0%

## CCCSP(=O)(OCC)Oc1ccc(Br)cc1Cl (stereo not drawn) [profenophos]
Spodoptera frugiperda; [1]
  pest or weed control at 4 g/ha: 17%
Phaedon cochleariae; 4 g/ha
  Kill rate in % after 2 d: 0%
Phaedon cochleariae; 4 g/ha, after 6 d
  pest or weed control at 4 g/ha: 0%

## CC1(C)[C@H](C(=O)O[C@H](C#N)c2cccc(Oc3ccccc3)c2)[C@@H]1/C=C(\Cl)C(F)(F)F [gamma-cyhalothrin]
Tetranychus urticae; 0.8 g/ha, after 2 d, applied individually
  Kill rate in % after 2 d: 0%
Spodoptera frugiperda; 0.032 g/ha
  Kill rate in % after 2 d: 17%
Myzus persicae; 0.032 g/ha, after 1 d
  Kill rate in % after 1 d: 0%

## COP(=O)(NC(C)=O)SC (stereo not drawn) [acephate]
Phaedon cochleariae
  pest or weed control at 4 g/ha: 0%
Myzus persicae; [3]
  pest or weed control at 100 g/ha: 0%

## emamectin benzoate
Tetranychus urticae; 0.032 g/ha, after 2 d, applied individually
  Kill rate in % after 2 d: 0%
Phaedon cochleariae; 0.032 g/ha, after 6 d
  Kill rate in % after 6 d: 0%
Myzus persicae; 0.16 g/ha, after 1 d
  Kill rate in % after 1 d: 0%
Myzus persicae; 0.8 g/ha, after 1 d
  Kill rate in % after 1 d: 0%

## Cc1cc(C(F)(C(F)(F)F)C(F)(F)F)ccc1NC(=O)c1cccc(I)c1C(=O)NC(C)(C)CS(C)(=O)=O [flubendiamide]
Tetranychus urticae; Tetranychus urticae, 48 h, 20 g/ha, after 2 d, applied individually, read-out: Kill rate in % after 2 d
  pest or weed control at 20 g/ha: 0%
Phaedon cochleariae; 0.8 g/ha, after 6 d
  pest or weed control at 0.8 g/ha: 0%

## Nc1nc(N)nc(NC2CC2)n1 [cyromazine]
Spodoptera frugiperda; [1]
  pest or weed control at 4 g/ha: 0%
Phaedon cochleariae; 4 g/ha, after 6 d
  pest or weed control at 4 g/ha: 0%
Myzus persicae; Myzus persicae, 24 h, 100 g/ha, after 1 d, read-out: Kill rate in % after 1 d
  pest or weed control at 100 g/ha: 0%

## Cc1nn(C)c(Oc2ccccc2)c1C=NOCc1ccc(C(=O)OC(C)(C)C)cc1 [fenpyroximate]
Tetranychus urticae; Tetranychus urticae, 48 h, 0.8 g/ha, after 2 d, applied individually, read-out: Kill rate in % after 2 d
  pest or weed control at 0.8 g/ha: 0%
Spodoptera frugiperda; 0.8 g/ha
  Kill rate in % after 2 d: 0%

## CNC(=O)Oc1cccc2ccccc12 [carbaryl]
Tetranychus urticae; Tetranychus urticae, 48 h, read-out: Kill rate in % after 2 d
  pest or weed control at 500 g/ha: 10%
Tetranychus urticae; Tetranychus urticae, 144 h, read-out: Kill rate in % after 6 d
  pest or weed control at 500 g/ha: 20%
Spodoptera frugiperda; Spodoptera frugiperda, 144 h, read-out: Kill rate in % after 6 d
  pest or weed control at 4 g/ha: 0%
Myzus persicae; [3]
  pest or weed control at 500 g/ha: 0%

## spinosad
Tetranychus urticae; 20 g/ha, after 2 d, applied individually
  Kill rate in % after 2 d: 20%
Spodoptera frugiperda; 0.16 g/ha, after 6 d
  Kill rate in % after 6 d: 0%

## CC1(C)C(C=C(Cl)Cl)C1C(=O)OC(C#N)c1cccc(Oc2ccccc2)c1 (stereo not drawn) [cypermethrin]
Phaedon cochleariae; 0.16 g/ha, after 6 d
  pest or weed control at 0.16 g/ha: 0%
Myzus persicae; [2]
  pest or weed control at 4 g/ha: 80%

## O=S(=O)(CCC(F)=C(F)F)c1ncc(Cl)s1 [fluensulfone]
Tetranychus urticae; 2000 g/ha, after 2 d, applied individually
  Kill rate in % after 2 d: 0%
Spodoptera frugiperda; 2000 g/ha, after 6 d
  Kill rate in % after 6 d: 0%

## CNC(=O)c1cc(C#N)cc(C)c1NC(=O)c1cc(Br)nn1-c1ncccc1Cl [cyantraniliprole]
Phaedon cochleariae; 0.16 g/ha
  Kill rate in % after 2 d: 0%
Phaedon cochleariae; 0.16 g/ha, after 6 d
  pest or weed control at 0.16 g/ha: 0%
Myzus persicae; [4]
  pest or weed control at 0.16 g/ha: 0%

## CCc1nn(C)c(C(=O)NCc2ccc(C(C)(C)C)cc2)c1Cl [tebufenpyrad]
Tetranychus urticae; Tetranychus urticae, 48 h, 0.16 g/ha, after 2 d, applied individually, read-out: Kill rate in % after 2 d
  pest or weed control at 0.16 g/ha: 0%
Tetranychus urticae; Tetranychus urticae, 144 h, 4 g/ha, after 6 d, applied individually, read-out: Kill rate in % after 6 d
  pest or weed control at 4 g/ha: 40%
Phaedon cochleariae; 0.16 g/ha, after 6 d
  pest or weed control at 0.16 g/ha: 0%
Myzus persicae; Myzus persicae, 24 h, 0.8 g/ha, after 1 d, read-out: Kill rate in % after 1 d
  pest or weed control at 0.8 g/ha: 0%
Myzus persicae; [4]
  pest or weed control at 0.16 g/ha: 0%

## spinetoram
Tetranychus urticae; 4 g/ha, after 6 d, applied individually
  Kill rate in % after 6 d: 20%
Phaedon cochleariae; 0.16 g/ha, after 6 d
  Kill rate in % after 6 d: 0%
Myzus persicae; 0.8 g/ha, after 6 d
  Kill rate in % after 6 d: 0%
Myzus persicae; 4 g/ha, after 1 d
  Kill rate in % after 1 d: 0%
